In brackets after ≈: the same amount, converted by molar mass.
Assays:
MCF7 = test: Antitumor activity against human MCF7 cells after 48 hrs by Sulphorhodamine-B assay; settings: MCF7, 48 h
HepG2 = test: Antitumor activity against human HepG2 cells after 48 hrs by Sulphorhodamine-B assay; settings: HepG2, 48 h
HeLa = test: Antitumor activity against human HeLa cells after 48 hrs by Sulphorhodamine-B assay

IC50 (MCF7) [µg/mL] | IC50 (HepG2) [µg/mL] | IC50 (HeLa) [µg/mL] | Structure (SMILES)
3.35 (≈ 11.7 µM) | 7.01 (≈ 24.4 µM) | 4.57 (≈ 15.9 µM) | Cc1ccc(-c2nc3ccc(Cl)cc3c(=S)[nH]2)cc1
3.35 (≈ 10.3 µM) | 4.37 (≈ 13.4 µM) | 3.76 (≈ 11.5 µM) | Cc1ccc(-c2nc(SCC#N)c3cc(Cl)ccc3n2)cc1
5.18 (≈ 18 µM) | 11.1 (≈ 38.6 µM) | 13.3 (≈ 46.2 µM) | Cc1ccc(-c2nc3ccc(Cl)cc3c(=S)o2)cc1
3.76 (≈ 11.4 µM) | 9.04 (≈ 27.3 µM) | 9.25 (≈ 28 µM) | Cc1ccc(-c2nc(SCCO)c3cc(Cl)ccc3n2)cc1
3.35 (≈ 11.8 µM) | 4.17 (≈ 14.6 µM) | 4.37 (≈ 15.3 µM) | Cc1ccc(-c2nc3ccc(Cl)cc3c(=O)n2C)cc1
3.56 (≈ 8.71 µM) | 5.59 (≈ 13.7 µM) | 5.39 (≈ 13.2 µM) | Cc1ccc(-c2nc(Sc3ncccc3[N+](=O)[O-])c3cc(Cl)ccc3n2)cc1
14.7 (≈ 33.6 µM) | 18.4 (≈ 42 µM) | 10.5 (≈ 24 µM) | Cc1ccc(-c2nc(SCC(=O)Nc3ccc(F)cc3)c3cc(Cl)ccc3n2)cc1
3.76 (≈ 13.9 µM) | 14.5 (≈ 53.8 µM) | 3.56 (≈ 13.2 µM) | Cc1ccc(-c2nc(N)c3cc(Cl)ccc3n2)cc1
3.76 (≈ 6.92 µM) | 4.57 (≈ 8.41 µM) | 3.64 (≈ 6.7 µM) | COc1cccc2c1C(=O)c1c(O)c3c(c(O)c1C2=O)C[C@@](O)(C(=O)CO)C[C@@H]3O[C@H]1C[C@H](N)[C@H](O)[C@H](C)O1 [DOXORUBICIN]
8.64 (≈ 28.7 µM) | 13.3 (≈ 44.2 µM) | 14.7 (≈ 48.9 µM) | CSc1nc(-c2ccc(C)cc2)nc2ccc(Cl)cc12
5.39 (≈ 18.9 µM) | 18.4 (≈ 64.4 µM) | 12.1 (≈ 42.3 µM) | Cc1ccc(-c2nc3ccc(Cl)cc3c(=O)n2N)cc1
8.03 (≈ 24.6 µM) | 23.9 (≈ 73.1 µM) | 9.66 (≈ 29.6 µM) | C=CCSc1nc(-c2ccc(C)cc2)nc2ccc(Cl)cc12
10.5 (≈ 38.6 µM) | 22.5 (≈ 82.8 µM) | 8.23 (≈ 30.3 µM) | Cc1ccc(-c2nc3ccc(Cl)cc3c(=O)o2)cc1
5.59 (≈ 16.3 µM) | 9.45 (≈ 27.5 µM) | 4.98 (≈ 14.5 µM) | Cc1ccc(-c2nc(SCC(N)=O)c3cc(Cl)ccc3n2)cc1
5.59 (≈ 14.3 µM) | 12.1 (≈ 31 µM) | 5.18 (≈ 13.3 µM) | Cc1ccc(-c2nc(NOC(=O)c3ccccc3)c3cc(Cl)ccc3n2)cc1
5.39 (≈ 18.7 µM) | 21 (≈ 72.7 µM) | 8.23 (≈ 28.5 µM) | Cc1ccc(C(=O)Nc2ccc(Cl)cc2C(N)=O)cc1
3.35 (≈ 10.5 µM) | 5.59 (≈ 17.5 µM) | 4.98 (≈ 15.6 µM) | Cc1ccc(C(=O)Nc2ccc(Cl)cc2C(=S)NN)cc1
3.76 (≈ 13.2 µM) | 4.17 (≈ 14.6 µM) | 3.98 (≈ 14 µM) | Cc1ccc(-c2nc(NN)c3cc(Cl)ccc3n2)cc1
16.1 (≈ 43.1 µM) | 17.5 (≈ 46.8 µM) | 16.2 (≈ 43.3 µM) | Cc1ccc(-c2nc(NC(=O)c3ccccc3)c3cc(Cl)ccc3n2)cc1
3.96 (≈ 9.68 µM) | 7.21 (≈ 17.6 µM) | 7.01 (≈ 17.1 µM) | Cc1ccc(-c2nc(S(=O)(=O)Cc3ccccc3)c3cc(Cl)ccc3n2)cc1
14.7 (≈ 50.7 µM) | 15.9 (≈ 55.1 µM) | 18.9 (≈ 65.2 µM) | Cc1ccc(C(=O)Nc2ccc(Cl)cc2C(=O)O)cc1
4.78 (≈ 11.4 µM) | 14.3 (≈ 34.1 µM) | 11.7 (≈ 27.9 µM) | Cc1ccc(-c2nc(SCC(=O)Nc3ccccc3)c3cc(Cl)ccc3n2)cc1
5.79 (≈ 13.3 µM) | 18.8 (≈ 43.3 µM) | 12.3 (≈ 28.3 µM) | Cc1ccc(NC(=O)CSc2nc(-c3ccc(C)cc3)nc3ccc(Cl)cc23)cc1
4.98 (≈ 18.4 µM) | 9.86 (≈ 36.4 µM) | 10.1 (≈ 37.3 µM) | Cc1ccc(-c2nc3ccc(Cl)cc3c(=O)[nH]2)cc1
6.81 (≈ 23.8 µM) | 23.1 (≈ 80.8 µM) | 12.7 (≈ 44.4 µM) | Cc1ccc(-c2nc(NO)c3cc(Cl)ccc3n2)cc1
9.25 (≈ 30.6 µM) | 17 (≈ 56.3 µM) | 14 (≈ 46.4 µM) | Cc1ccc(-c2nc3ccc(Cl)cc3c(=S)n2N)cc1
9.66 (≈ 25.6 µM) | 18.4 (≈ 48.8 µM) | 11.3 (≈ 30 µM) | Cc1ccc(-c2nc(SCc3ccccc3)c3cc(Cl)ccc3n2)cc1
15.8 (≈ 34.1 µM) | 5.99 (≈ 12.9 µM) | 10.1 (≈ 21.8 µM) | CCOc1ccc(NC(=O)CSc2nc(-c3ccc(C)cc3)nc3ccc(Cl)cc23)cc1

Source: ChEMBL document CHEMBL1240450, “Design, synthesis and biological evaluation of novel quinazoline derivatives as potential antitumor agents: molecular docking study” (Eur J Med Chem, 2010)
